Measured values: patent US12054449B2, “Phenylcarbamate crystalline form and method for manufacturing the same” (BIO-PHARM SOLUTIONS CO., LTD., priority 2021, dated 2024)

How the values were obtained:
[1] = Competitive slurry experiment for Pattern 1 and Pattern 3; type: physicochemical; conditions: 4 days
Experimental: To investigate the relative thermodynamic stability of various crystalline form patterns at room temperature and 50° C., competitive slurry experiments were carried out.
A mixture of Pattern 1 and Pattern 3 (ED01748-028-003-00, 4×20 mg) was dispensed into vials. They were treated with 250 μL of a saturated solution of Pattern 1 (ED01748-006-001-00) in DIPE or heptane (50 mg of ED01748-006-001-00 was treated with DIPE or heptane and heated at 50° C., a portion was removed as needed, and the resulting product was filtered through a 0.45 μm syringe filter, thereby forming a slurry). The produced slurry was stirred at room temperature or 50° C. After analysis, the solid was returned to the vial, and an additional saturated solution was added as needed to maintain the slurry. After 4 days, the purity of the material was confirmed by UPLC.

[2] = Change of crystalline form on standing or drying (XRPD); type: physicochemical
Experimental: XRPD patterns were detected by CuKα irradiation (30 kV, 10 mA) using a Bruker AXS D2 diffractometer. The analysis was performed using θ-θ geometry and a LynxEye detector at 5 to 42° 2θ with a step size of 0.024° 2θ at 0.1 sec/step.
Samples were run at ambient conditions and prepared as flat specimens using powder received without grinding. About 1 to 2 mg of the sample was lightly pressed on a silicon wafer to obtain a flat surface.

Which “UPLC purity of slurry material after 4 days” value ([1]; DIPE samples, RT and 50° C.) does the source give for `C[C@H](OC(N)=O)[C@@H](O)c1ccccc1Cl` [ED01748-028-003-00, 1-(2-chlorophenyl)-(S)-1-hydroxypropyl-(S)-2-carbamate] here?
The value was 98%.

And the “UPLC purity of slurry material after 4 days” value ([1]; heptane sample)?
Its value is 98.5%.

Which “Change in form by XRPD on drying” value ([2]; brief drying whilst standing in the open vial) does the source give for `C[C@H](OC(N)=O)[C@@H](O)c1ccccc1Cl` [Pattern 4, 1-(2-chlorophenyl)-(S)-1-hydroxypropyl-(S)-2-carbamate] here?
The value was “change in form by XRPD from Pattern 4 to a mixture of Pattern 1 and Pattern 3”.

What does the source list for `C[C@H](OC(N)=O)[C@@H](O)c1ccccc1Cl` [Pattern 6, 1-(2-chlorophenyl)-(S)-1-hydroxypropyl-(S)-2-carbamate]?
Form conversion by XRPD ([2]; Pattern 6 material from anisole, stood overnight): converted to a mixture of Pattern 6 and Pattern 1; Form conversion by XRPD ([2]; Pattern 6 material from toluene): converted to a mixture of Pattern 6 and Pattern 3

For `C[C@H](OC(N)=O)[C@@H](O)c1ccccc1Cl` [Pattern 7, 1-(2-chlorophenyl)-(S)-1-hydroxypropyl-(S)-2-carbamate], which Behaviour on standing [2] is on record?
The Behaviour on standing was “variable behaviour on standing”.

Which Change on standing ([2]; Pattern 8 from chloroform and heptane) does the source give for `C[C@H](OC(N)=O)[C@@H](O)c1ccccc1Cl` [Pattern 8, 1-(2-chlorophenyl)-(S)-1-hydroxypropyl-(S)-2-carbamate] here?
Its Change on standing is “observed to change on standing”.

What about the “change on standing o/n” value ([2]; solid from Exp. 10, chloroform/Heptane) of the same compound?
The value was “No change”.

What about the “change on standing o/n” value ([2]; solid from Exp. 14, DCM/Heptane) of the same compound?
The value was “Small”.

With `C[C@H](OC(N)=O)[C@@H](O)c1ccccc1Cl` [Pattern 9, 1-(2-chlorophenyl)-(S)-1-hydroxypropyl-(S)-2-carbamate] as the compound, how does the “change on standing o/n” value ([2]; solid from Exp. 9, chloroform/Toluene) read?
Its value is “No change”.

What about the “change on standing o/n” value ([2]; solid from Exp. 13, DCM/Toluene) of the same compound?
The value was “No change”.
